Test results as given in patent US20230165252A1, “ACTIVE COMPOUND COMBINATIONS” (Bayer Aktiengesellschaft, priority 2020, published 2023).

Assay: Measurement of Log P values by HPLC on reversed phase columns (EEC directive 79/831 Annex V.A8), methods [a], [b], [c]
Format: physicochemical
Conditions: HPLC method [a]
Procedure: Measurement of Log P values as provided herein was performed according to EEC directive 79/831 Annex V.A8 by HPLC (High Performance Liquid Chromatography) on reversed phase columns with the following methods: • ^[a]

SMILES	LogP
Cc1cc(Br)ccc1C(F)(F)CNC(=O)c1cc(Cl)nnc1Oc1cccc(C(F)(F)F)c1 [I-404]	4.57^[a]
Cc1c(Cl)nnc(Oc2cccc(C(F)(F)F)c2)c1C(=O)NCC(F)(F)c1ccc(Cl)cc1Cl [I-338]	4.43^[a]
O=C(NCC(F)(F)c1ccc(Br)cc1Cl)c1cc(C2CC2)nnc1Oc1cccc(C(F)(F)F)c1 [I-312]	4.79^[a];
O=C(NCC(F)(F)c1ccc(Cl)cc1)c1c(Oc2cccc(C(F)(F)F)c2)nnc(Cl)c1NC1CCCCC1 [I-272]	4.98^[a]
O=C(NCC(F)c1ccc(Br)cc1Cl)c1cc(Cl)nnc1Oc1cccc(C2CC2)c1 (racemic) [I-362]	4.87^[a]
O=C(NCc1cncc2ccccc12)c1cc(Cl)nnc1Oc1cccc(C(F)(F)F)c1 [I-379]	2.14^[a]
Cc1ccc(CCNC(=O)c2cc(Cl)nnc2Oc2cccc(C(F)(F)F)c2)c(-c2nccn2C)c1 [I-341]	1.85^[a]

Same assay, conditions: HPLC on reversed phase column, method [a]

SMILES	LogP
O=C(NCCc1ncccc1C(F)(F)F)c1cc(Cl)nnc1Oc1cccc(C(F)(F)F)c1 [I-037]	3.65^[a]
O=C(NCC(F)(F)c1cc(Cl)sc1Cl)c1cc(Cl)nnc1Oc1cccc(C(F)(F)F)c1 [I-825]	4.73^[a]
CCOc1c(Cl)nnc(Oc2cccc(C(F)(F)F)c2)c1C(=O)NCC(F)(F)c1ccc(C)cc1C [I-181]	4.68^[a]
Cc1ccc(C(F)(F)CNC(=O)c2c(Oc3cccc(C(F)(F)F)c3)nnc(Cl)c2[S+](C)[O-])c(C)c1 (centres unmarked) [I-072]	3.75^[a]
O=C(NCC(F)(F)c1ccc(Cl)cn1)c1cc(Cl)nnc1Oc1cccc(C(F)(F)F)c1 [I-108]	3.65^[a]
O=C(NCC(F)(F)c1ccc(F)cc1F)c1cc(Cl)nnc1Oc1cccc(C(F)(F)F)c1 [I-067]	3.75^[a]
Cc1ccc(C(F)(F)CNC(=O)c2c(Oc3cccc(C(F)(F)F)c3)nnc(Cl)c2NCC(C)(C)O[Si](C)(C)C)c(C)c1 [I-064]	6.32^[a]

Same assay, conditions: method [a]

SMILES	LogP
O=C(NCCc1ccc2c(c1)CCO2)c1cc(Cl)nnc1Oc1cccc(C(F)(F)F)c1 [I-551]	3.65^[a]
O=C(NCC(F)c1ccc(Cl)cc1Cl)c1c(Oc2cccc(C3CC3)c2F)nnc(Cl)c1O (racemic) [I-782]	5.13^[a]
COCCc1c(C2CC2)nnc(Oc2cccc(C(F)(F)F)c2)c1C(=O)NCC(F)(F)c1ccc(C)cc1C [I-636]	4.57^[a]
C#Cc1cc(C(=O)NCC(F)(F)c2ccc(C)cc2C)c(Oc2cccc(C(F)(F)F)c2)nn1 [I-577]	4.31^[a]
COCCc1cc(C(=O)NCC(F)(F)c2ccc(C)cc2C)c(Oc2cccc(C(F)(F)F)c2)nn1 [I-796]	4.00^[a]
CCc1cccc(Oc2nnc(Cl)cc2C(=O)NCC(F)(F)c2ccc(C)cc2C)c1 [I-570]	4.68^[a]
O=C(NC1CCCc2sc(Cl)cc21)c1cc(Cl)nnc1Oc1cccc(C(F)(F)F)c1 (racemic) [I-639]	4.68^[a]
CNc1c(Cl)nnc(Oc2cccc(C3CC3)c2F)c1C(=O)NCCc1ccc(Cl)cc1Cl [I-757]	4.09^[a]
Cc1ccc(C(F)(F)CNC(=O)c2cc(Cl)nnc2Oc2ccc3[nH]ccc3c2)c(C)c1 [I-769]	3.78^[a]
O=C(NCc1cccc2cnccc12)c1cc(Cl)nnc1Oc1cccc(C(F)(F)F)c1 [I-559]	2.14^[a]
O=C(NCC(F)(F)c1ccc(Cl)cc1Cl)c1cc(Cl)nnc1Oc1cccc(C2CC2)c1F [I-598]	4.71^[a]
CON(CCc1ccc(Cl)cc1Cl)C(=O)c1c(Oc2cccc(C3CC3)c2F)nnc(Cl)c1C [I-739]	5.36^[a]
Cc1cnn(CCNC(=O)c2cc(C)nnc2Oc2cccc(C(F)(F)F)c2)c1 [I-691]	2.58^[a]
Cc1ccc(C(F)(F)CNC(=O)c2cc(-c3cn[nH]c3)nnc2Oc2cccc(C(F)(F)F)c2)c(C)c1 [I-515]	3.65^[a]
O=C(NC1CCCc2ccsc21)c1cc(Cl)nnc1Cl (racemic) [Compound 3-16]	2.60^[a]
O=C(NCCc1ccc2c(c1)OCCO2)c1cc(Cl)nnc1Oc1cccc(C(F)(F)F)c1 [I-573]	3.53^[a]
Cc1ccc(C(F)(F)CNC(=O)c2c(Oc3cccc(C(F)(F)F)c3)nnc(Cl)c2OCC2CC2(F)F)c(C)c1 (racemic) [I-683]	4.95^[a]
O=C(NCC(F)(F)Oc1ccc(C(F)(F)F)cc1Cl)c1cc(Cl)nnc1Oc1cccc(C(F)(F)F)c1 [I-633]	4.58^[a]
O=C(NCC(F)(F)c1ccc(Cl)cc1Br)c1cc(Cl)nnc1Oc1cccc(C(F)(F)F)c1 [I-478]	4.68^[a]

Same assay, conditions: method [a]: LC-UV, acidic range, 0.1% formic acid in water and acetonitrile as eluent (10% to 95% acetonitrile); Table 3, compounds of formula (1)

SMILES	LogP
O=C(O)c1cc(I)nnc1Oc1cccc(C(F)(F)F)c1 [Compound 1-127]	2.08^[a]
O=C(O)c1cc(Cl)nnc1Oc1cccc(Br)c1 [Compound 1-048]	1.66^[a]
CC(C)OC(=O)c1cc(-n2ccnc2)nnc1Oc1cccc(C(F)(F)F)c1 [Compound 1-050]	2.55^[a]
O=C(O)c1cc(-c2ccncc2Cl)nnc1Oc1cccc(C(F)F)c1F [Compound 1-020]	1.86^[a]
Cc1nnc(Oc2cccc(Cl)c2)c(C(=O)O)c1C [Compound 1-018]	0.80^[a]
Cc1nnc(Oc2cccc(C(F)F)c2F)c(C(=O)O)c1C [Compound 1-013]	0.96^[a]
CC(C)OC(=O)c1cc(Cl)nnc1Oc1cccc(F)c1F [Compound 1-011]	3.65^[a]
O=C(O)c1cc(Cl)nnc1Oc1cncc(C(F)(F)F)c1 [Compound 1-025]	1.31^[a]
Cc1nnc(Oc2cccc(C3CC3)c2F)c(C(=O)O)c1C [Compound 1-077]	1.31^[a]
Cc1c(Cl)nnc(Oc2cccc(C3CC3(F)F)c2)c1C(=O)O (racemic) [Compound 1-105]	1.69^[a]

Same assay, conditions: method [a]: LC-UV, acidic range, 0.1% formic acid in water and acetonitrile as eluent; Table 5, compounds of formula (2)

SMILES	LogP
NCC(F)(F)c1cccc(Br)c1Cl [Compound 2-04]	0.87^[a]
NCC(F)c1ccc(C2CC2)cc1Cl (racemic) [Compound 2-07]	1.15^[a]
C#Cc1ccc(C(F)(F)CN)c(C)c1 [Compound 2-01]	0.93^[a]

Same assay, conditions: method [a]: LC-UV, acidic range, 0.1% formic acid in water and acetonitrile as eluent; Table 9, compounds of formula (4)

SMILES	LogP
CC=Cc1cccc(O)c1F [Compound 4-01]	2.33^[a]

Same assay, conditions: method [b]: LC-UV, neutral range, 0.001 molar ammonium acetate solution in water and acetonitrile as eluent (10% to 95% acetonitrile); Table 3, compounds of formula (1)

SMILES	LogP
O=C(O)c1cc(Cl)nnc1Oc1cncc(C2CC2)c1 [Compound 1-051]	0.59^[b]
O=C(O)c1cc(Cl)nnc1Oc1cccc(C(F)(F)F)n1 [Compound 1-031]	0.69^[b]

Same assay, conditions: reversed-phase HPLC column, HPLC on reversed phase column, method [a]

SMILES	chromatographic logP
Cc1ccc(C(F)(F)CNC(=O)c2c(Oc3cccc(C4CC4)c3F)nnc(Cl)c2C)c(Br)c1 [Compound I-840, N-[2-(2-bromo-4-methylphenyl)-2,2-difluoroethyl]-6-chloro-3-(3-cyclopropyl-2-fluoro-phenoxy)-5-methylpyridazine-4-carboxamide]	4.57
Cc1ccc(C(F)(F)CNC(=O)c2c(Oc3cccc(C(F)(F)F)c3)nnc(Cl)c2I)c(C)c1 [Compound I-020, 6-chloro-N-[2-(2,4-dimethylphenyl)-2,2-difluoro-ethyl]-5-iodo-3-[3-(trifluoromethyl)phenoxy]pyridazine-4-carboxamide]	4.61
Cc1ccc(C(F)(F)CNC(=O)c2cc(Cl)nnc2Oc2cccc(C(F)(F)F)c2)c(C)c1 [Compound I-014, 6-chloro-N-[2-(2,4-dimethylphenyl)-2,2-difluoro-ethyl]-3-[3-(trifluoromethyl)phenoxy]pyridazine-4-carboxamide]	4.46
Cc1ccc(CCNC(=S)c2cc(C)nnc2Oc2cccc(C(F)(F)F)c2)c(C)c1 [Compound I-094, N-[2-(2,4-dimethylphenyl)ethyl]-6-methyl-3-[3-(trifluoro-methyl)phenoxy]pyridazine-4-carbothioamide]	4.69

Same assay, conditions: reversed-phase HPLC column, method [a]

SMILES	chromatographic logP
Cc1ccc(C(F)(F)CNC(=O)c2cc(I)nnc2Oc2cccc(C(F)(F)F)c2)c(C)c1 [Compound I-461, N-[2-(2,4-dimethylphenyl)-2,2-difluoro-ethyl]-6-iodo-3-[3-(trifluoromethyl)phenoxy]pyridazine-4-carboxamide]	4.67
Cc1ccc(C(F)(F)CNC(=O)c2c(Oc3cccc(C(F)(F)F)c3)nnc(Cl)c2-c2cccnc2)c(C)c1 [Compound I-550, 6-chloro-N-[2-(2,4-dimethylphenyl)-2,2-difluoro-ethyl]-5-(3-pyridyl)-3-[3-(trifluoromethyl)phenoxy]pyridazine-4-carboxamide]	3.99
Cc1ccc(C(F)(F)CNC(=O)c2cc(C)nnc2Oc2cccc(C3CCC3)c2)c(C)c1 [Compound I-564, 3-(3-cyclobutylphenoxy)-N-[2-(2,4-dimethylphenyl)-2,2-difluoro-ethyl]-6-methyl-pyridazine-4-carboxamide]	3.85

Same assay, conditions: reversed-phase HPLC column, method [a]: LC-UV, acidic range, 0.1% formic acid in water and acetonitrile as eluent (10% to 95% acetonitrile); Table 3, compounds of formula (1)

SMILES	chromatographic logP
COC(=O)c1c(Oc2cccc(Cl)c2)nnc(Cl)c1C [Compound 1-033, methyl 6-chloro-3-(3-chlorophenoxy)-5-methyl-pyridazine-4-carboxylate]	3.37
COCCc1c(Cl)nnc(Oc2cccc(C(F)(F)F)c2)c1C(=O)O [Compound 1-026, 6-chloro-5-(2-methoxyethyl)-3-[3-(trifluoromethyl)phenoxy]pyridazine-4-carboxylic acid]	1.74
COC(=O)c1c(Oc2cccc(C(F)F)c2F)nnc(C)c1C [Compound 1-006]	2.64
COC(=O)c1cc(Cl)nnc1Oc1cncc(Br)c1 [Compound 1-086]	2.33
CCOC(=O)c1cc(C)nnc1Oc1cncc(C(F)(F)F)c1 [Compound 1-036]	2.37
COC(=O)c1c(Oc2cccc(C(F)(F)F)c2)nnc(Cl)c1OC [Compound 1-046]	3.52
COC(=O)c1c(Oc2cccc(C(F)F)c2F)nnc(Cl)c1Cl [Compound 1-055]	3.51
CCOC(=O)c1c(Oc2cccc(C(F)(F)F)c2)nnc(Cl)c1OCC [Compound 1-060]	4.23
COC(=O)c1c(Oc2cccc(C3CC3)c2F)nnc(Cl)c1C [Compound 1-101]	3.7
